Source: PMC11960782 (Nanoscale Advances, 2025)
Residues, ends and D or L forms follow the SMILES beside them.

Key:
[1] = test system: DC2.4 cells
[2] = mouse, in vivo

With `CCCCCCCCCCCCCCCC(=O)N[C@H](C(=O)N[C@H](C(=O)N[C@H](C(=O)N[C@@H](C)C(=O)N[C@@H](C)C(=O)N[C@@H](C)C(=O)N[C@@H](CCCCN)C(=O)N[C@@H](CCCCN)C(=O)N[C@@H](CCCCN)C(=O)NCC(=O)NCC(=O)NCC(=O)NCC(=O)N[C@@H](CO)C(=O)N[C@@H](CC(C)C)C(=O)N[C@@H](CC(C)C)C(=O)N[C@H](C(=O)N[C@@H](CCC(=O)O)C(=O)N[C@H](C(=O)N[C@@H](CCC(=O)O)C(=O)N[C@H](C(=O)N1CCC[C@H]1C(=O)N[C@H](C(=O)N[C@@H](CCCNC(=N)N)C(=O)N[C@@H](CC(N)=O)C(=O)N[C@@H](CCC(=O)O)C(=O)N[C@@H](Cc1c[nH]c2ccccc12)C(=O)NCC(=O)N[C@@H](CO)C(=O)N[C@@H](CCCNC(=N)N)C(=O)N[C@@H](CO)C(=O)N[C@@H](CC(N)=O)C(=O)NCC(=O)N[C@@H](CO)C(=O)N[C@@H](CO)C(=O)N[C@@H](CC(=O)O)C(=O)O)[C@@H](C)CC)[C@@H](C)O)C(C)C)[C@@H](C)O)C(C)C)C(C)C)C(C)C` [PA–M2e] (HELM PEPTIDE1{[CCCCCCCCCCCCCCCC(=O)[*:2]].V.V.V.A.A.A.K.K.K.G.G.G.G.S.L.L.T.E.V.E.T.P.I.R.N.E.W.G.S.R.S.N.G.S.S.D}$$$$V2.0) the “cell viability (metabolic activity, resazurin reduction)” value [1] was “did not significantly decrease cell viability”, the “live–dead cell assay by confocal microscopy” value [1] was “confirmed the biocompatibility” and the “weight loss upon immunization” value [2] was “none of the mice experienced weight loss”.
